Consider 18 molecules from PubChem BioAssay (NCI).

SMILES strings stand for the structures. “And” between values parts separate entries of the source, which are not always exact repeats. Equal values may be shown once.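 Test compounds were applied to cells in 96-well plates for 48 hours at 5 doses. At the GI50, growth is halved. Definition used: TGI = concentration required for complete inhibition of growth.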

Holding throughout (experiment): NCI tumour cell line growth inhibition, 48 h
The test system of experiment [1] is CAKI-1 renal.
Experiment [2] deals with HL-60(TB) leukemia.
In experiment [3] the test system is HS 578T breast.
Experiment [4] concerns M14 melanoma.
The test system of experiment [5] is MDA-MB-435.
For experiment [6], the system named is NCI-H226 lung.
For experiment [7], the system named is NCI-H23 lung.
Experiment [8] concerns PC-3 prostate.
Experiment [9] deals with SF-268 CNS.
Experiment [10] deals with SK-MEL-28 melanoma.
Experiment [11] concerns SK-MEL-5 melanoma.
For experiment [12], the system named is SNB-19 CNS.
Experiment [13] deals with UACC-257 melanoma.
The subject of experiment [14] is UACC-62 melanoma.
For experiment [15], the system named is MALME-3M melanoma.
Experiment [16] deals with OVCAR-3 ovarian.

Take `Cc1c(/C=N/NC(=S)Nc2ccc([N+](=O)[O-])cc2)c(=O)n(-c2ccccc2)n1C`: the TGI in experiment [1] is 18.9 µM; in experiment [2] it was over 100 µM; in [3], 42.2 µM; in experiment [4], 28.6 µM; in experiment [5] it was over 100 µM; in experiment [6] it was 29.7 µM. In addition, the TGI in experiment [7] was 32.6 µM; in experiment [8] it was 76.8 µM; in experiment [9], 26.7 µM; in experiment [10] it was over 100 µM; in experiment [11], over 100 µM; in experiment [12] it was 31.8 µM. Further, the TGI was over 100 µM in experiment [13] and 33.7 µM in experiment [14].
For `CC1(C)CCCCC1/C=C/C(CC(O)(C(F)(F)F)C(F)(F)F)=N\Nc1ccc([N+](=O)[O-])cc1[N+](=O)[O-]` (stereo not given), the TGI in experiment [2] is over 100 µM; in experiment [3] it was 40.6 µM; in experiment [4], 17.2 µM; in experiment [15], 48.3 µM; in experiment [5], 7.9 µM; in experiment [6] it was 2.81 µM. Moreover, the TGI in experiment [7] turned out to be 0.778 µM; in experiment [16], 14.5 µM; in [8] it was 5.32 µM; in [9], 3 µM; in experiment [10] it was 18.8 µM; in experiment [11], 1.24 µM. In addition, the figures for the TGI in [12], in experiment [13] and in experiment [14] were 19 µM, 7.55 µM and 13.9 µM, respectively.
Consider `CC(C)(Cl)C(Br)CCC(=CCBr)CBr` (mixture of isomers), for which the TGI stood at 2.42 µM in [2]; 19.3 µM in [3]; 4.25 µM in experiment [4]; 4.74 µM in [15]; 3.56 µM in experiment [5]; 51.9 µM in experiment [6]. Also, the TGI stood at 9.07 µM in [7]; 6.27 µM in experiment [16]; 18 µM in [8]; 4.99 µM in experiment [9]; 10.8 µM in [10]; 7.77 µM in [11]. In addition, the TGI in experiment [12] is 13.1 µM; in [13], 14.2 µM; in experiment [14] it was 11.5 µM.
As to `Cc1ccc(S(=O)(=O)NN=C2C(C)CC(C(C)(C)C)CC2C)cc1` (stereo not given), the TGI in [1] was 31.6 µM; in experiment [2], 52.7 µM; in experiment [3] it was over 100 µM; in experiment [4], 26.9 µM; in experiment [15] it was 32.6 µM; in experiment [5] it was 34.9 µM. Also, the TGI in experiment [6] amounted to 34.5 µM; in [7], 56.5 µM; in [16] it was 31.8 µM; in experiment [8] it was 37.9 µM; in experiment [10] it was 36.6 µM; in experiment [11] it was 31.3 µM. Also, the TGI in experiment [12] stood at 66 µM; in [13], 36.6 µM; in [14], 93.2 µM.
For `O=c1cc(CN2CCCCC2)[nH]c2c1ccc1nc(CN3CCCCC3)cc(=O)n12`, the TGI in experiment [1], in experiment [2], in experiment [3], in [4], in experiment [5] and in [6] was over 100 µM each time. Also, the TGI in experiment [7], in experiment [16], in [8], in experiment [9], in [10] and in [11] was over 100 µM in each case. The TGI in experiment [12], in [13] and in [14] was over 100 µM each time.
`COc1cc(S(=O)(=O)Nc2ccc(-c3csc(/N=C\c4ccccc4O)n3)cc2)ccc1Cl`: the TGI is over 100 µM in experiment [1]; 98.6 µM in [2]; over 100 µM in [3]; over 100 µM in experiment [4]; over 100 µM in experiment [15]; over 100 µM in [5]. Further, the TGI in experiment [6], in experiment [7], in [16], in experiment [8], in experiment [9] and in [10] was over 100 µM each time. Also, the TGI in [11], in experiment [12] and in experiment [14] was over 100 µM throughout.
For `CCCc1c(O)c2ccccc2[nH]c1=O`, the TGI in experiment [1], in [2], in experiment [3], in experiment [15], in experiment [5] and in [6] was over 100 µM in each case. Moreover, the TGI in experiment [7], in experiment [16], in experiment [8], in experiment [10], in experiment [11] and in experiment [12] was over 100 µM each time. In experiment [13], this molecule registered a TGI of over 100 µM.
As to `COc1ccc(/C=C2\N=C(N3CCOCC3)NC2=O)cc1`, the TGI in experiment [1], in experiment [2], in experiment [3], in experiment [4], in [15] and in [5] was over 100 µM in each case. The TGI in [6], in [7], in experiment [16], in experiment [8], in [9] and in [10] was over 100 µM each time. In addition, the TGI in [12], in experiment [13] and in experiment [14] was over 100 µM in each case.
As for `Cc1ccc(OC2CC(n3cnc4c(=O)[nH]c(Br)nc43)OC2Oc2ccc(C)cc2)cc1` (stereo not given), the TGI in experiment [1] was found to be 75.7 µM; in [2], 59.2 µM; in experiment [3], 66.1 µM; in [4], 62.1 µM; in experiment [15], 61.5 µM; in experiment [5] it was 57.1 µM. Further, the TGI was over 100 µM in experiment [6]; 70.3 µM in [7]; 39.9 µM in experiment [16]; 49.8 µM in [8]; 58.1 µM in experiment [9]; 58.7 µM in experiment [11]. Moreover, the TGI was determined as 49 µM in [12], 62.2 µM in experiment [13] and 53.7 µM in experiment [14].
For `CC(=O)OCC(OC(C)=O)C(OC(C)=O)C(/C=N\Nc1nc2ccccc2c(=O)[nH]1)OC(C)=O` (stereo not given), the TGI in experiment [1], in experiment [2], in experiment [3], in experiment [4], in experiment [5] and in experiment [6] was over 100 µM in each case. Further, the TGI in experiment [7], in experiment [16], in experiment [8], in experiment [9], in [10] and in experiment [11] was over 100 µM throughout. Further, the TGI in [12], in experiment [13] and in experiment [14] was over 100 µM throughout. Also, the GI50 in [3] was 40.6 µM and 88.4 µM.
As to `COCN1C(=O)[C@@H]2CCCN2C(=O)c2ccc(Cl)cc21`, the TGI in experiment [1], in [2], in experiment [3], in experiment [4], in [15] and in [5] was over 100 µM in each case. For the same molecule, the TGI in [6], in experiment [7], in [8], in experiment [9], in [10] and in [12] was over 100 µM in each case. Moreover, the TGI in experiment [13] and in experiment [14] was over 100 µM each time.
With `CN1CCN(Cn2nc(-c3ccccc3)n(/N=C/c3ccc(-c4ccc(Cl)cc4Cl)o3)c2=S)CC1`, the TGI in experiment [1] is 21.9 µM; in experiment [2] it was 80.3 µM; in experiment [3], over 100 µM; in experiment [4] it was 39.1 µM; in experiment [5], 46.1 µM; in experiment [6], 53.2 µM. The TGI came out at 40.7 µM in [7]; 28.5 µM in experiment [16]; 22 µM in experiment [8]; 26.2 µM in [9]; 77.8 µM in experiment [10]; 68.9 µM in experiment [11]. Moreover, the TGI in experiment [13] amounted to 47.5 µM.
Turning to `CCc1nc2c(n1CC)C(=O)c1ccccc1C2=O`, the TGI in experiment [2] was over 100 µM; in [3], over 100 µM; in [4], 54.9 µM; in experiment [15], 34.3 µM; in experiment [5] it was 32.2 µM; in experiment [6], over 100 µM. Also, the TGI in experiment [7] was over 100 µM; in experiment [16], 53.9 µM; in experiment [8], 63.7 µM; in experiment [9] it was over 100 µM; in experiment [10], over 100 µM; in [11], over 10 µM. The results for the TGI in [12], in experiment [13] and in experiment [14] were over 100 µM, 51.4 µM and over 100 µM, respectively.
Take `O=C(OC1C#CCSCC#C/C=C\1)c1cnc2ccccc2n1` (stereo not given): the TGI in [2], in experiment [3], in experiment [4], in experiment [15], in [5] and in experiment [6] was over 100 µM in each case. The TGI in experiment [7], in experiment [16], in [8], in experiment [9], in experiment [10] and in [12] was over 100 µM throughout. For the same molecule, the TGI in [13] and in [14] was over 100 µM throughout.
Consider `COc1cc(C2SC(N)=Nc3c2c(C)nn3C(=O)Cc2ccccc2)cc(OC)c1OC` (stereo not given), for which the TGI in experiment [1], in experiment [2], in experiment [3], in experiment [4], in [5] and in experiment [6] was over 100 µM each time. Moreover, the TGI in experiment [7], in experiment [8], in experiment [9], in experiment [10], in [11] and in experiment [12] was over 100 µM each time. Also, the TGI in experiment [13] and in [14] was over 100 µM each time.
On to `Cc1cc(N(C)C)ccc1N=Nc1ccc2ncccc2c1`, for which the TGI in experiment [1], in [2], in [3], in experiment [4], in experiment [15] and in experiment [5] was over 100 µM each time. Further, the TGI in experiment [6] was over 100 µM; in [7] it was over 100 µM; in experiment [8] it was over 100 µM; in experiment [9], over 100 µM; in [11] it was 98.1 µM; in experiment [12], 94 µM. The TGI in [13] and in experiment [14] was over 100 µM in each case.
Take `CO[C@@H]1C[C@H]2[C@@H]3CC[C@H]([C@@H](C)COC(C)=O)[C@@]3(C)CC[C@@H]2[C@@]2(C)CC[C@H]3C[C@]312`: the TGI was 21.4 µM in experiment [1]; 19.1 µM in [2]; 39.5 µM in [3]; 38 µM in experiment [4]; 29.4 µM in experiment [15]; 29.2 µM in experiment [5]. Further, the TGI worked out at 34.9 µM in experiment [6]; 25.4 µM in experiment [7]; 27.7 µM in experiment [16]; 29.6 µM in experiment [8]; 40.6 µM in [9]; 31.9 µM in [10]. For the same molecule, the TGI in experiment [11] is 15.2 µM; in [12], 31.7 µM; in [13] it was 24.4 µM.
Regarding `CC(C)C1=CC23CCC4C(C)(C(=O)O)CCCC4(C)C2CC1C1C(=O)N(c2ccc(N4C(=O)C5C6CC7C8(C)CCCC(C)(C(=O)O)C8CCC7(C=C6C(C)C)C5C4=O)cc2)C(=O)C13` (stereo not given), the TGI amounted to 17.2 µM in experiment [2]; 30.2 µM in [3]; 15.8 µM in experiment [4]; 27.9 µM in [15]; 13 µM in experiment [5]; 13.7 µM in experiment [6]. The TGI in [7] was determined as 11.9 µM; in experiment [16], 18.6 µM; in experiment [8], 14.1 µM; in experiment [9] it was 22.3 µM; in experiment [10], 16.7 µM; in experiment [11], 19.2 µM. This molecule returned a TGI in [12] of 18.8 µM.
